Consider 19 molecules from patent publication US8841312B2, “Fused pyridine, pyrimidine and triazine compounds as cell cycle inhibitors” (Amgen Inc., priority 2007, dated 2014).

pIC50: −log10 of the molar value.

Cdk4/CyclinD1, sequence (P11802 whole entry): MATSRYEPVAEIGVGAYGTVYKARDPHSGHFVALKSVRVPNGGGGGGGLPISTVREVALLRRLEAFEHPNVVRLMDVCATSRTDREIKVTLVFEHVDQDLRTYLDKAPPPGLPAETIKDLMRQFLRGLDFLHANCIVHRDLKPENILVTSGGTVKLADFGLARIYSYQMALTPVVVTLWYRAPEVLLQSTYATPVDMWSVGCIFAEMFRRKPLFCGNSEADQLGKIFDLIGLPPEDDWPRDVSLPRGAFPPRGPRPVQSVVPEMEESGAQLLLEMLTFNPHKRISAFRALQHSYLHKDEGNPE
Cdk4/CyclinD1, sequence (P24385 whole entry partner): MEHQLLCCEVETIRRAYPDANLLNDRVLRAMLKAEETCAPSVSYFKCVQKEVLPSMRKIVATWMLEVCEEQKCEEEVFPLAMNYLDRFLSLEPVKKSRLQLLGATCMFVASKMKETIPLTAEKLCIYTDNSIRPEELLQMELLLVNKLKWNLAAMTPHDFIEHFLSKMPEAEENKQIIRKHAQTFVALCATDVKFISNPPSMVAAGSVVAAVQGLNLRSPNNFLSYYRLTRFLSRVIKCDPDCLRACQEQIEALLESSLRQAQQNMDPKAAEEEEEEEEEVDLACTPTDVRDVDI

This experiment addresses Cdk4/CyclinD1 (Homo sapiens (Human), UniProt P11802). The experiment is described as follows: Cdk4 kinase inhibition assay with recombinant Cdk4/CyclinD1, Rb substrate, [33P]-ATP filter plate. The class given is biochemical. Conditions: 25 μM ATP, read-out: Cdk 4 IC50. Summed up:
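Recombinant Cdk4/CyclinD1 or Cdk6/CyclinD3 phosphorylated Rb protein with [33P]-ATP for 1 h at room temperature. Protein was TCA-precipitated on filter plates and bound radioactivity counted. IC50 by nonlinear regression.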
Turning to `OCCN1CCN(c2ccc(Nc3ncc4c5ccncc5n(C5CCCC5)c4n3)nc2)CC1` [Example 191, 2-(4-(6-((9-Cyclopentyl-9H-pyrido[4′,3′:4,5]pyrrolo[2,3-d]pyrimidin-2-yl)amino)-3-pyridinyl)-1-piperazinyl)ethanol], the negative-log IC50 (pIC50) (as a rule, −log10 of the IC50, conventionally taken in molar units) was 8.36.
As to `O[C@@H]1CCN(c2ccc(Nc3ncc4c5ccncc5n([C@H]5CCOC5)c4n3)nn2)C1` [Example 397], the pIC50 was 6.47.
The same measure for `CC1(C)CCC(n2c3nc(Nc4ccc(N5CCNCC5)cn4)ncc3c3ccnc(O)c32)CC1` [Example 208, 9-(4,4-dimethylcyclohexyl)-2-((5-(1-piperazinyl)-2-pyridinyl)amino)-9H-pyrido[4′,3′:4,5]pyrrolo[2,3-d]pyrimidin-8-ol]: 8.74; for `OCCN1CCN(c2ccc(Nc3ncc4c5ccnc(Cl)c5n(C5CCCC5)c4n3)nc2)CC1` [Example 166, 2-(4-(6-((8-Chloro-9-cyclopentyl-9H-pyrido[4′,3′:4,5]pyrrolo[2,3-d]pyrimidin-2-yl)amino)-3-pyridinyl)-1-piperazinyl)ethanol]: 8.26.
Take `C[C@H](CO)n1c2cnccc2c2cnc(Nc3ccc(N4CCNCC4)cn3)nc21` [Example 375]: the pIC50 was 7.40.
In the case of `O=C(CO)N1CCN(c2ccc(Nc3ncc4c5ccncc5n(C5CCCC5)c4n3)nc2)CC1` [Example 151, 2-(4-(6-((9-Cyclopentyl-9H-pyrido[4′,3′:4,5]pyrrolo[2,3-d]pyrimidin-2-yl)amino)-3-pyridinyl)-1-piperazinyl)-2-oxoethanol], the negative logarithm of the IC50 (pIC50) is 8.52.
Take `c1ccc(-n2c3cnccc3c3cnc(Nc4ccc(N5CCNCC5)cc4)nc32)cc1` [Example 17, (9-Phenyl-9H-pyrido[4′,3′:4,5]pyrrolo[2,3-d]pyrimidin-2-yl)-(4-piperazin-1-yl-phenyl)amine]: the negative-log IC50 (pIC50) was 9.49.
For `c1cc2c3cnc(Nc4cnc(N5CCCNCC5)cn4)nc3n(C3CCCC3)c2cn1` [Example 86], the pIC50 is 8.19.
For `C[C@H]1CN(c2cnc(Nc3ncc4c5ccncc5n(C5CCCC5)c4n3)cn2)CCN1` [Example 81], the pIC50 is 8.04.
`CC(=O)OCC(=O)N1CCN(c2ccc(Nc3ncc4c5ccnc(F)c5n(C5CCCC5)c4n3)nc2)CC1` [Example 194, 2-(4-(6-((9-cyclopentyl-8-fluoro-9H-pyrido[4′,3′:4,5]pyrrolo[2,3-d]pyrimidin-2-yl)amino)-3-pyridinyl)-1-piperazinyl)-2-oxoethyl acetate]: the pIC50 is 6.22.
As for `C[C@H](CO)n1c2cnccc2c2cnc(Nc3ccc(N4CCN[C@@H](C)C4)cn3)nc21` [Example 381], the pIC50 is 5.70.
Turning to `C[C@H](CO)n1c2cnccc2c2cnc(Nc3ccc(N4CCNC(C)(C)C4)cn3)nc21` [Example 383], the pIC50 was 7.21.
For `C[C@H]1CN(c2ccc(Nc3ncc4c5cc[nH]c(=O)c5n(C5CCCC5)c4n3)nn2)CCN1` [Example 129], the pIC50 is 7.80.
As for `c1cc2c3cnc(Nc4ccc(N5CCNCC5)cn4)nc3n(C3CCCCC3)c2cn1` [Example 23, (9-Cyclohexyl-9H-pyrido[4′,3′,4,5]pyrrolo[2,3-d]pyrimidin-2-yl)-(5-piperazin-1-yl-pyridin-2-yl)-amine], the pIC50 was 7.96.
On to `CC[C@H](C)n1c2cnccc2c2cnc(Nc3ccc(N4CCC(NC)CC4)nn3)nc21` [Example 334], for which the pIC50 was 6.10.
For the molecule `c1cc2c3cnc(Nc4ccc(N5CCC(N6CCCC6)CC5)cn4)nc3n(C3CCCC3)c2cn1` [Example 76], the negative-log IC50 (pIC50) was 8.23.
Under `C[C@@H](O)Cn1c2cnccc2c2cnc(Nc3ccc(N4CCNCC4)nn3)nc21` [Example 415] stands 6.59; under `O=C(O)Cc1ccc(Nc2ncc3c4ccncc4n(C4CCCC4)c3n2)nc1` [Example 241, (6-((9-cyclopentyl-9H-pyrido[4′,3′:4,5]pyrrolo[2,3-d]pyrimidin-2-yl)amino)-3-pyridinyl)acetic acid], 6.75.
`C[C@H](CO)n1c2cnccc2c2cnc(Nc3ccc(N4CCNC(C)(C)C4)nn3)nc21` [Example 388]: the pIC50 was 6.66.
